One test concerns the target human KHK-C (Homo sapiens (Human), UniProt P50053). Put plainly: KHK Biochemical Assay (IC50), ADP-Glo, KHK-C. The settings on record: average of at least two separate assays. Summed up:
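ADP-Glo luminescence measured ADP made over a 4 h room-temperature reaction of ATP plus fructose, started after 30 min compound–enzyme pre-incubation. Buffer: 50 mM Hepes pH 7.4, 140 mM KCl, 5 mM MgCl2, 0.01% Triton-X. Enzyme was His-tagged, BL21 (DE3)-expressed, Ni-NTA-purified; compounds in 1:3 DMSO dilution series.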

A further test has as its target human KHK-A (Homo sapiens (Human), UniProt P50053). The test is described as follows: KHK Biochemical Assay (IC50), ADP-Glo, KHK-A. The settings on record: average of at least two separate assays. The method, then:
The His-tagged fusion protein was expressed using BL21 (DE3) with IPTG induction and purified using Ni-NTA column followed by dialysis into final buffer containing 25 mM Tris-HCl pH 8.0, 250 mM NaCl.
KHK Biochemical Assay (IC50)
Compounds were tested for KHK enzyme inhibition in a high-throughput 384-well assay format using the ADP-Glo assay (Promega) in buffer consisting of 50 mM Hepes (pH 7.4), 140 mM KCl, 5 mM MgCl2 and 0.01% Triton-X. 0.2 nM. […] Compounds were serially diluted (1:3) in DMSO.
The compounds were pre-incubated with 5 μL of 2× final enzyme concentration for 30 minutes before adding 5 μL of 2× final concentration of ATP and fructose. The plates were incubated at room temperature for 4 hours before adding ADP-Glo reagent to quench the enzyme reaction, followed by incubation at room temperature for 1 hour. The ADP-Glo detection reagent was then added to the plates and luminescence was measured on the Envision plate reader after 1 hour.

Structures are written as SMILES. A value given as a limit tells only on which side of the number the result lay.

Sequence of human KHK-A (P50053 other isoform, or with tags, fused parts or gaps): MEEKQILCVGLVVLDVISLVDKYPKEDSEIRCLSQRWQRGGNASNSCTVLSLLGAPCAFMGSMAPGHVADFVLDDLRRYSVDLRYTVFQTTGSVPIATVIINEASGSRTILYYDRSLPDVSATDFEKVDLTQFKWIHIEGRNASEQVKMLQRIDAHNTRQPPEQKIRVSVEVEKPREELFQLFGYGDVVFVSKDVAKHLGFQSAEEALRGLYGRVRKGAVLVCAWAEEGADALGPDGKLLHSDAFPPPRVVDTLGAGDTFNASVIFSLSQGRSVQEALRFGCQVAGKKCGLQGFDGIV
Sequence of human KHK-C (P50053 whole entry): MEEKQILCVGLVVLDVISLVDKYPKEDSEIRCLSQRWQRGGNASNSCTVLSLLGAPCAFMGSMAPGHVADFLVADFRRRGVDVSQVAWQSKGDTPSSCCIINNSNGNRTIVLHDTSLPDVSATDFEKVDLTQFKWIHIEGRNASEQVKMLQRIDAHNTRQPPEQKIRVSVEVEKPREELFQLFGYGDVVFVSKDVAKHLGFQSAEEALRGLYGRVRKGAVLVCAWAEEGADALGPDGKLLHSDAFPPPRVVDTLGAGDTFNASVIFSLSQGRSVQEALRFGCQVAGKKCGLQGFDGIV

On to `C[C@H]1[C@H](O)CN1c1nc2c(c(-c3cccc([C@@H]4C[C@H]4C(=O)O)c3)n1)CCC2` (single isomer, unassigned) [Example 114], for which the concentration for half-maximal inhibition (IC50) came to 0.0462 µM against human KHK-C (ADP-Glo) and 0.051 µM at human KHK-A (ADP-Glo).
The like results for `C[C@H]1CCN1c1nc2c(c(-c3cccc(NS(C)(=O)=O)c3)n1)CCC2` [Example 42, (S)—N-(3-(2-(2-methylazetidin-1-yl)-6,7-dihydro-5H-cyclopenta[d]pyrimidin-4-yl)phenyl)methanesulfonamide] were, in that order, 0.0227 µM and 0.0318 µM.
The like results for `C#CC1CCN1c1nc2c(c(-c3ccc(C(N)=O)cc3)n1)CCC2` (stereo not drawn) [Example 111, 4-(2-(2-ethynylazetidin-1-yl)-6,7-dihydro-5H-cyclopenta[d]pyrimidin-4-yl)benzamide] were, in that order, 0.152 µM and 0.186 µM.
With `CC1OCC2(COc3cc(-c4nc(N5C[C@@H](O)[C@@H]5C)nc5c4CCC5(F)F)ccc32)NC1=O` (stereo partly drawn) [Example 558, 6-(7,7-difluoro-2-((2S,3R)-3-hydroxy-2-methylazetidin-1-yl)-6,7-dihydro-5H-cyclopenta[d]pyrimidin-4-yl)-6′-methyl-2H-spiro[benzofuran-3,3′-morpholin]-5′-one], the 50% inhibitory concentration (IC50) on human KHK-C was determined as 0.0002 µM; on human KHK-A it was 0.0082 µM.
On to `COc1ccc(-c2nc(N3CC[C@@H]3C)nc3c2CCC3)cc1S(=N)(=O)CC1COCOC1` (stereo partly drawn) [Example 844, ((1,3-dioxan-5-yl)methyl)(imino)(2-methoxy-5-(2-((S)-2-methylazetidin-1-yl)-6,7-dihydro-5H-cyclopenta[d]pyrimidin-4-yl)phenyl)-λ^6-sulfanone], for which the half-maximal inhibitory concentration (IC50) against human KHK-C (ADP-Glo) was found to be 0.0085 µM; on human KHK-A (ADP-Glo), 0.0025 µM.
As to `C[C@H]1CCN1c1nc2c(c(-c3ccc(S(C)(=O)=O)cc3)n1)CCC2` [Example 354, 2-[(2S)-2-methylazetidin-1-yl]-4-(4-methylsulfonylphenyl)-6,7-dihydro-5H-cyclopenta[d]pyrimidine], the half-maximal inhibitory concentration (IC50) on human KHK-C (ADP-Glo) turned out to be 0.138 µM; against human KHK-A (ADP-Glo) it was 0.177 µM.
The like results for `Cc1cc(-c2nc(N3CC[C@@H]3C)nc3c2CCC3)ccc1C(=O)NCCO` [Example 356, N-(2-hydroxyethyl)-2-methyl-4-[2-[(2S)-2-methylazetidin-1-yl]-6,7-dihydro-5H-cyclopenta[d]pyrimidin-4-yl]benzamide] were, in that order, 0.0799 µM and 0.0706 µM.
Take `CNCCNC(=O)c1cccc(-c2nc(N3CC[C@@H]3C)nc3c2CCC3)c1` [Example 53, (S)—N-(2-(methylamino)ethyl)-3-(2-(2-methylazetidin-1-yl)-6,7-dihydro-5H-cyclopenta[d]pyrimidin-4-yl)benzamide]: the IC50 amounted to 0.194 µM against human KHK-C (ADP-Glo) and 0.13 µM at human KHK-A (ADP-Glo).
For `C[C@H]1[C@H](N)CN1c1nc2c(c(-c3ccc(C(N)=O)cc3)n1)CCC2` [Example 93], in that order: above 5 µM and above 5 µM.
The like results for `CCS(=N)(=O)c1cc(-c2nc(N3CC[C@@H]3C)nc3c2CCC3)ccc1OC` (stereo partly drawn) [Example 861, ethyl(imino)(2-methoxy-5-(2-((S)-2-methylazetidin-1-yl)-6,7-dihydro-5H-cyclopenta[d]pyrimidin-4-yl)phenyl)-λ^6-sulfanone] were, in that order, 0.0152 µM and 0.0049 µM.
For `C[C@H]1CCN1c1nc2c(c(-c3ccc(CNC(=O)c4ccccc4)cc3)n1)CCC2` [Example 360, N-[[4-[2-[(2S)-2-methylazetidin-1-yl]-6,7-dihydro-5H-cyclopenta[d]pyrimidin-4-yl]phenyl]methyl]benzamide], in that order: 0.253 µM and 0.169 µM.
Turning to `C[C@H]1CCN1c1nc2c(c(-c3ccn(CCC(=O)O)n3)n1)CCC2` [Example 24, (S)-3-(3-(2-(2-methylazetidin-1-yl)-6,7-dihydro-5H-cyclopenta[d]pyrimidin-4-yl)-1H-pyrazol-1-yl)propanoic acid], the half-maximal inhibitory concentration (IC50) against human KHK-C (ADP-Glo) came to 0.419 µM; on human KHK-A (ADP-Glo), 0.615 µM.
The like results for `C[C@H]1CCN1c1nc2c(c(-c3ccc4ncn(C)c4c3)n1)CCC2` [Example 853, (S)-1-methyl-6-(2-(2-methylazetidin-1-yl)-6,7-dihydro-5H-cyclopenta[d]pyrimidin-4-yl)-1H-benzo[d]imidazole] were, in that order, 0.0353 µM and 0.0732 µM.
For `C[C@H]1CCN1c1nc2c(c(-c3ccc(C(C)(C)O)cc3)n1)CCC2` [Example 369, 2-[4-[2-[(2S)-2-methylazetidin-1-yl]-6,7-dihydro-5H-cyclopenta[d]pyrimidin-4-yl]phenyl]propan-2-ol], in that order: 0.0871 µM and 0.186 µM.
For `C[C@H]1CCN1c1nc2c(c(-c3cc(C(N)=O)cc(C(N)=O)c3)n1)CCC2` [Example 116, (S)-5-(2-(2-methylazetidin-1-yl)-6,7-dihydro-5H-cyclopenta[d]pyrimidin-4-yl)isophthalamide], in that order: 0.0398 µM and 0.0546 µM.
As to `NC1(c2ccc(-c3nc(N4CCC4C(F)F)nc4c3CCC4(F)F)cc2)COC1` (stereo not drawn) [Example 678, 3-[4-[2-[2-(difluoromethyl)azetidin-1-yl]-7,7-difluoro-5,6-dihydrocyclopenta[d]pyrimidin-4-yl]phenyl]oxetan-3-amine], the IC50 at human KHK-C was 0.0018 µM; against human KHK-A it was 0.0046 µM.
Take `CC1CN(c2nc3c(c(-c4ccc(C(N)=O)cc4)n2)CCC3)C1C` (stereo not drawn) [Example 105, 4-(2-(2,3-dimethylazetidin-1-yl)-6,7-dihydro-5H-cyclopenta[d]pyrimidin-4-yl)benzamide]: the half-inhibitory concentration (IC50) against human KHK-C (ADP-Glo) is 0.205 µM; against human KHK-A (ADP-Glo), 0.253 µM.
For `C[C@H]1CCN1c1nc2c(c(-c3ccc4c(c3)CCCC4NS(C)(=O)=O)n1)CCC2` (stereo partly drawn) [Example 890, N-(6-(2-((S)-2-methylazetidin-1-yl)-6,7-dihydro-5H-cyclopenta[d]pyrimidin-4-yl)-1,2,3,4-tetrahydronaphthalen-1-yl)methanesulfonamide], in that order: 0.0608 µM and 0.141 µM.
For `C[C@H]1CCN1c1nc2c(c(-c3ccc(CS(N)(=O)=O)cc3)n1)CCC2` [Example 242, [4-[2-[(2S)-2-methylazetidin-1-yl]-6,7-dihydro-5H-cyclopenta[d]pyrimidin-4-yl]phenyl]methanesulfonamide], in that order: 0.135 µM and 0.0986 µM.
With `COc1cc(S(=N)(=O)c2cc(-c3nc(N4CC[C@@H]4C)nc4c3CCC4)ccc2OC)ccc1C#N` (stereo partly drawn) [Example 850, 2-methoxy-4-(2-methoxy-5-(2-((S)-2-methylazetidin-1-yl)-6,7-dihydro-5H-cyclopenta[d]pyrimidin-4-yl)phenylsulfonimidoyl)benzonitrile], the 50% inhibitory concentration (IC50) on human KHK-C (ADP-Glo) stood at 0.141 µM; against human KHK-A (ADP-Glo), 0.0596 µM.
Turning to `C[C@H](O)C(=O)NCc1cccc(-c2nc(N3CC[C@@H]3C)nc3c2CCC3)c1` [Example 230, (2S)-2-hydroxy-N-[[3-[2-[(2S)-2-methylazetidin-1-yl]-6,7-dihydro-5H-cyclopenta[d]pyrimidin-4-yl]phenyl]methyl]propanamide], the IC50 was 0.107 µM against human KHK-C (ADP-Glo) and 0.0967 µM against human KHK-A (ADP-Glo).
In the case of `NS(=O)(=O)c1cccc(-c2nc(N3CC4CCCC43)nc3c2CCC3)c1` (racemic) [Example 79, (rac)-3-(2-(6-azabicyclo[3.2.0]heptan-6-yl)-6,7-dihydro-5H-cyclopenta[d]pyrimidin-4-yl)benzenesulfonamide], the IC50 turned out to be 4.99 µM against human KHK-C (ADP-Glo) and 6.96 µM at human KHK-A (ADP-Glo).
For `C[C@H]1CCN1c1nc2c(c(-c3ccc4c(c3)NC(=O)C4(C)C)n1)CCC2` [Example 264, 3,3-dimethyl-6-[2-[(2S)-2-methylazetidin-1-yl]-6,7-dihydro-5H-cyclopenta[d]pyrimidin-4-yl]indolin-2-one], in that order: 0.646 µM and 0.758 µM.
The like results for `C[C@H]1CCN1c1nc2c(c(-c3cccc(-c4noc(=O)[nH]4)c3)n1)CCC2` [Example 872, (S)-3-(3-(2-(2-methylazetidin-1-yl)-6,7-dihydro-5H-cyclopenta[d]pyrimidin-4-yl)phenyl)-1,2,4-oxadiazol-5(4H)-one] were, in that order, 0.0289 µM and 0.027 µM.
Consider `C[C@H]1[C@H](O)CN1c1nc(-c2ccc3c(c2)OCCC32NC(=O)NC2=O)c2c(n1)C(F)(F)CC2` (stereo partly drawn) [Example 551, 7-(7,7-difluoro-2-((2S,3R)-3-hydroxy-2-methylazetidin-1-yl)-6,7-dihydro-5H-cyclopenta[d]pyrimidin-4-yl)spiro[chromane-4,4′-imidazolidine]-2′,5′-dione], for which the figures for the 50% inhibitory concentration (IC50) on human KHK-C and against human KHK-A were 0.0009 µM and 0.0051 µM, respectively.
In the case of `COc1ccc(-c2nc(N3CC[C@@H]3C)nc3c2CCC3)cc1S(=N)(=O)c1ccc(C#N)cc1` (stereo partly drawn) [Example 851, 4-(2-methoxy-5-(2-((S)-2-methylazetidin-1-yl)-6,7-dihydro-5H-cyclopenta[d]pyrimidin-4-yl)phenylsulfonimidoyl)benzonitrile], the IC50 against human KHK-C (ADP-Glo) was 0.0178 µM; against human KHK-A (ADP-Glo) it was 0.0101 µM.
With `C[C@H]1CCN1c1nc(-c2ccns2)c2c(n1)C1CC1C2` (stereo partly drawn) [Example 273, 5-(2-((S)-2-methylazetidin-1-yl)-5,5a,6,6a-tetrahydrocyclopropa[4,5]cyclopenta[1,241]pyrimidin-4-yl)isothiazole], the results for the half-maximal inhibitory concentration (IC50) against human KHK-C (ADP-Glo) and on human KHK-A (ADP-Glo) were 0.532 µM and 0.433 µM, respectively.

What is called IC50 is the midpoint of a concentration-inhibition curve. A high value points to a need for much substance.

Values taken from patent publication US12410160B2 (Gilead Sciences, Inc., priority 2021, dated 2025).
